Test results as given in patent US7488740B2, “Substituted quinolin-4-ylamine analogues” (Neurogen Corporation, priority 2003, dated 2009).

Molecular target: T1, human capsaicin receptor (Homo sapiens, UniProt Q8NER1)
T1 construct: A cDNA encoding full length human capsaicin receptor recited in U.S. Pat. No. 6,482,611 was subcloned in the plasmid pBK-CMV; expressed in transfected cells
Assay: Calcium mobilization assay (Example 6)
Type: cell-based
Conditions: concentration required to provide a 50% decrease in the fluorescence response of cells exposed to one IC50 of capsaicin
Procedure: Human embryonic kidney (HEK293) cells were transfected with the pBK-CMV expression construct encoding the full length human capsaicin receptor using standard methods. The transfected cells were selected for two weeks in media containing G418 (400 μg/ml) to obtain a pool of stably transfected cells. Independent clones were isolated from this pool by limiting dilution to obtain clonal stable cell lines for use in subsequent experiments.
Cells transfected with expression plasmids (as described in Example 4) and thereby expressing human capsaicin receptor are seeded and grown to 70-90% confluency in FALCON black-walled, clear-bottomed 96-well plates (#3904, BECTON-DICKINSON, Franklin Lakes, N.J.). The culture medium is emptied from the 96 well plates and FLUO-3 AM calcium sensitive dye (Molecular Probes, Eugene, Oreg.) is added to each well (dye solution: 1 mg FLUO-3 AM, 440 μL DMSO and 440 μl 20% pluronic acid in DMSO, diluted 1:250 in Krebs-Ringer HEPES (KRH) buffer (25 mM HEPES, 5 mM KCl, 0.96 mM NaH2PO4, 1 mM MgSO4, 2 mM CaCl2, 5 mM glucose, 1 mM probenecid, pH 7.4), 50 μl diluted solution per well). Plates are covered with aluminum foil and incubated at 37° C. for 1-2 hours in an environment containing 5% CO2. After the incubation, the dye is emptied from the plates, and the cells are washed once with KRH buffer, and, resuspended in KRH buffer.
Agonist (e.g., olvanil, capsaicin, or RTX)-induced calcium mobilization is monitored using either FLUOROSKAN ASCENT (Labsystems, Franklin, Mass.) or FLIPR (fluorometric imaging plate reader system, Molecular Devices, Sunnyvale, Calif.) instruments. Varying concentrations of the antagonists ruthenium red or capsazepine (RBI; Natick, Mass.) are added to cells concurrently with agonist (e.g., 25-50 nM capsaicin). For agonist-induced calcium responses, data obtained between 30 and 60 seconds after agonist application are used to generate the IC50 values. KALEIDAGRAPH software (Synergy Software, Reading, Pa.) is used to fit the data to the equation: y=a*(1/(1+(b/x)^c)) to determine the IC50 for the response. In this equation, y is the maximum fluorescence signal, x is the concentration of the agonist or antagonist, a is the Emax, b corresponds to the IC50 value and c is the Hill coefficient.
To measure the ability of a test compound to antagonize (inhibit) the response of cells expressing capsaicin receptors to capsaicin or other vanilloid agonist, the IC50 of capsaicin is first determined. An additional 20 μl of KRH buffer and 1 μl DMSO is added to each well of cells, prepared as described above. 100 μl capsaicin in KRH buffer is automatically transferred by the FLIPR instrument to each well. An 8-point concentration response curve, with final capsaicin concentrations of 1 nM to 3 μM, is used to determine capsaicin IC50.
Test compounds are dissolved in DMSO, diluted in 20 μl KRH buffer so that the final concentration of test compounds in the assay well is between 1 μM and 5 μM, and added to cells prepared as described above. The 96 well plates containing prepared cells and test compounds are incubated in the dark, at room temperature for 0.5 to 6 hours. It is important that the incubation not continue beyond 6 hours. Just prior to determining the fluorescence response, 100 μl capsaicin in KRH buffer at twice the IC50 concentration determined from the concentration response curve is automatically added by the FLIPR instrument to each well of the 96 well plate for a final sample volume of 200 μl and a final capsaicin concentration equal to the IC50. The final concentration of test compounds in the assay wells is between 1 μM and 5 μM. […] Antagonists of the capsaicin receptor decrease this response by at least about 20%, preferably by at least about 50%, and most preferably by at least 80% as compared to matched control. The concentration of antagonist required to provide a 50% decrease is the IC50 for the antagonist, and is preferably below 1 micromolar, 100 nanomolar, 10 nanomolar or 1 nanomolar. […]

T1 sequence (Q8NER1 whole entry): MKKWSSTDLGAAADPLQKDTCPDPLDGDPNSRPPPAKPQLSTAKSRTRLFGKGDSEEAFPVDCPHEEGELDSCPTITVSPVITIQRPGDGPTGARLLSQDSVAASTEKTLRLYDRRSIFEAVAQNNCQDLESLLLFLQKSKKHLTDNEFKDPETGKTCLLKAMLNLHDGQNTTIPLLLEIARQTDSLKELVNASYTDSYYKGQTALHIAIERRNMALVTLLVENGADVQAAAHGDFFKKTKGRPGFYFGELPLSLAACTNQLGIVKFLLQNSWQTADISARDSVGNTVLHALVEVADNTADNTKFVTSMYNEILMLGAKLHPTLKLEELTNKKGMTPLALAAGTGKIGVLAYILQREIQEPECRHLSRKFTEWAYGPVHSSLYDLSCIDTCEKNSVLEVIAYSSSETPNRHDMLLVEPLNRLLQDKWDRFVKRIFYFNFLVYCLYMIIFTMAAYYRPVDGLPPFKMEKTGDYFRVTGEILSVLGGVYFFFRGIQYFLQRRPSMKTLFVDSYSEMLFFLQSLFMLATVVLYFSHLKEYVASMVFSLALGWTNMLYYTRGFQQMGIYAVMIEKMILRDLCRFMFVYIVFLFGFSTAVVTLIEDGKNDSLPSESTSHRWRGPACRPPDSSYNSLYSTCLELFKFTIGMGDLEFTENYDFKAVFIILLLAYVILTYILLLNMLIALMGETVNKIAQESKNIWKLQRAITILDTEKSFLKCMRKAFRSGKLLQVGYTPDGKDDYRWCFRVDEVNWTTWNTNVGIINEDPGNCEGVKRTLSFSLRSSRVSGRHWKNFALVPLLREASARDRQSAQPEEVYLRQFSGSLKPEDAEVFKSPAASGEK

Compound | IC50
Cc1cc(Nc2ccc(C(F)(F)F)cc2)c2ccc(-c3ncccc3C(F)(F)F)cc2n1 [Compound 1, 2-methyl-N-[4-(trifluoromethyl)phenyl]-7-[3-(trifluoromethyl)pyridin-2-yl]quinolin-4-amine] | ≤ 1000 nM
COCc1cc(Nc2ccc(C(F)(F)F)cc2)c2ccc(-c3ncccc3C(F)(F)F)nc2n1 [Compound 2] | ≤ 1000 nM
COCc1cc(Nc2ccc(C(C)(C)C)cc2)c2ccc(-c3ncccc3C(F)(F)F)nc2n1 [Compound 3] | ≤ 1000 nM
COCc1nc2nc(-c3ncccc3C(F)(F)F)ccc2c(Nc2ccc(C(F)(F)F)cc2)c1C(=O)OC [Compound 4, methyl 2-(methoxymethyl)-4-{[4-(trifluoromethyl)phenyl]amino}-7-[3-(trifluoromethyl)pyridin-2-yl]-1,8-naphthyridine-3-carboxylate] | ≤ 1000 nM
OCc1cc(Nc2ccc(C(F)(F)F)cc2)c2ccc(-c3ncccc3C(F)(F)F)nc2n1 [Compound 5, {4-{[4-(trifluoromethyl)phenyl]amino}-7-[3-(trifluoromethyl)pyridin-2-yl]-1,8-naphthyridin-2-yl}methanol] | ≤ 1000 nM
COCc1nc2nc(-c3ncccc3C(F)(F)F)ccc2c(Nc2ccc(C(F)(F)F)cc2)c1C(=O)O [Compound 6, 2-(methoxymethyl)-4-{[4-(trifluoromethyl)phenyl]amino}-7-[3-(trifluoromethyl)pyridin-2-yl]-1,8-naphthyridine-3-carboxylic acid] | ≤ 1000 nM
CC(C)COCc1cc(Nc2ccc(C(F)(F)F)cc2)c2ccc(-c3ncccc3C(F)(F)F)nc2n1 [Compound 7, 2-(isobutoxymethyl)-N-[4-(trifluoromethyl)phenyl]-7-[3-(trifluoromethyl)pyridin-2-yl]-1,8-naphthyridin-4-amine] | ≤ 1000 nM
COCc1cc(Nc2ccc(Cl)cc2)c2ccc(-c3ncccc3C(F)(F)F)nc2n1 [Compound 8, N-(4-chlorophenyl)-2-(methoxymethyl)-7-[3-(trifluoromethyl)pyridin-2-yl]-1,8-naphthyridin-4-amine] | ≤ 1000 nM
COCc1cc(Nc2ccc(F)cc2)c2ccc(-c3ncccc3C(F)(F)F)nc2n1 [Compound 9, N-(4-fluorophenyl)-2-(methoxymethyl)-7-[3-(trifluoromethyl)pyridin-2-yl]-1,8-naphthyridin-4-amine] | ≤ 1000 nM
COCc1cc(Nc2ccc(Cl)c(F)c2)c2ccc(-c3ncccc3C(F)(F)F)nc2n1 [Compound 10, N-(4-chloro-3-fluorophenyl)-2-(methoxymethyl)-7-[3-(trifluoromethyl)pyridin-2-yl]-1,8-naphthyridin-4-amine] | ≤ 1000 nM
COCc1cc(Nc2ccc(C#N)cc2)c2ccc(-c3ncccc3C(F)(F)F)nc2n1 [Compound 11, 4-({2-(methoxymethyl)-7-[3-(trifluoromethyl)pyridin-2-yl]-1,8-naphthyridin-4-yl}amino)benzonitrile] | ≤ 1000 nM
O=C1OCc2nc3nc(-c4ncccc4C(F)(F)F)ccc3c(Nc3ccc(C(F)(F)F)cc3)c21 [Compound 12, 5-{[4-(trifluoromethyl)phenyl]amino}-2-[3-(trifluoromethyl)pyridin-2-yl]furo[3,4-b]-1,8-naphthyridin-6(8H)-one] | ≤ 1000 nM
COCc1cc(Nc2ccc(S(=O)(=O)C(C)C)cc2)c2ccc(-c3ncccc3C(F)(F)F)nc2n1 [Compound 13, N-[4-(isopropylsulfonyl)phenyl]-2-(methoxymethyl)-7-[3-(trifluoromethyl)pyridin-2-yl]-1,8-naphthyridin-4-amine] | ≤ 1000 nM
COCc1cc(Nc2ccc(C(F)(F)F)cn2)c2ccc(-c3ncccc3C(F)(F)F)nc2n1 [Compound 14, 2-(methoxymethyl)-7-[3-(trifluoromethyl)pyridin-2-yl]-N-[5-(trifluoromethyl)pyridin-2-yl]-1,8-naphthyridin-4-amine] | ≤ 1000 nM
COCc1cc(Nc2ccc(S(=O)(=O)C(F)(F)F)cc2)c2ccc(-c3ncccc3C(F)(F)F)nc2n1 [Compound 15, 2-(methoxymethyl)-7-[3-(trifluoromethyl)pyridin-2-yl]-N-{4-[(trifluoromethyl)sulfonyl]phenyl}-1,8-naphthyridin-4-amine] | ≤ 1000 nM
COCc1cc(Nc2ccc3c(c2)NCCC3(C)C)c2ccc(-c3ncccc3C(F)(F)F)nc2n1 [Compound 16, N-(4,4-dimethyl-1,2,3,4-tetrahydroquinolin-7-yl)-2-(methoxymethyl)-7-[3-(trifluoromethyl)pyridin-2-yl]-1,8-naphthyridin-4-amine] | ≤ 1000 nM
COCc1cc(Nc2ccc3c(c2)CN(C)CC3(C)C)c2ccc(-c3ncccc3C(F)(F)F)nc2n1 [Compound 17, 2-(methoxymethyl)-7-[3-(trifluoromethyl)pyridin-2-yl]-N-(2,4,4-trimethyl-1,2,3,4-tetrahydroisoquinolin-7-yl)-1,8-naphthyridin-4-amine] | ≤ 1000 nM
CC(C)COc1cc(Nc2ccc(C(F)(F)F)cc2)c2ccc(-c3ncccc3C(F)(F)F)cc2n1 [Compound 18, 2-isobutoxy-N-[4-(trifluoromethyl)phenyl]-7-[3-(trifluoromethyl)pyridin-2-yl]quinolin-4-amine] | ≤ 1000 nM
CC(C)COc1cc(Nc2ccc(C(C)(C)C)cc2)c2ccc(-c3ncccc3C(F)(F)F)cc2n1 [Compound 19, N-(4-tert-butylphenyl)-2-isobutoxy-7-[3-(trifluoromethyl)pyridin-2-yl]quinolin-4-amine] | ≤ 1000 nM
FC(F)(F)c1ccc(Nc2cc(Cl)nc3cc(-c4ncccc4C(F)(F)F)ccc23)cc1 [Compound 20, 2-chloro-N-[4-(trifluoromethyl)phenyl]-7-[3-(trifluoromethyl)pyridin-2-yl]quinolin-4-amine] | ≤ 1000 nM
CC(C)(C)c1ccc(Nc2cc(O)nc3cc(-c4ncccc4C(F)(F)F)ccc23)cc1 [Compound 21, 4-[(4-tert-butylphenyl)amino]-7-[3-(trifluoromethyl)pyridin-2-yl]quinolin-2-ol] | ≤ 1000 nM
CC(C)(C)c1ccc(Nc2cc(Cl)nc3cc(-c4ncccc4C(F)(F)F)ccc23)cc1 [Compound 22, N-(4-tert-butylphenyl)-2-chloro-7-[3-(trifluoromethyl)pyridin-2-yl]quinolin-4-amine] | ≤ 1000 nM
CC(C)(C)c1ccc(Nc2cc(N3CCOCC3)nc3cc(-c4ncccc4C(F)(F)F)ccc23)cc1 [Compound 23, N-(4-tert-butylphenyl)-2-morpholin-4-yl-7-[3-(trifluoromethyl)pyridin-2-yl]quinolin-4-amine] | ≤ 1000 nM
C[C@@H]1CN(Cc2cc(Nc3ccc(C(F)(F)F)cc3)c3ccc(-c4ncccc4C(F)(F)F)nc3n2)C[C@H](C)O1 [Compound 24, 2-{[(2R,6S)-2,6-dimethylmorpholin-4-yl]methyl}-N-[4-(trifluoromethyl)phenyl]-7-[3-(trifluoromethyl)pyridin-2-yl]-1,8-naphthyridin-4-amine] | ≤ 1000 nM
CN(C)CCOCc1cc(Nc2ccc(C(F)(F)F)cc2)c2ccc(-c3ncccc3C(F)(F)F)nc2n1 [Compound 25, 2-{[2-(dimethylamino)ethoxy]methyl}-N-[4-(trifluoromethyl)phenyl]-7-[3-(trifluoromethyl)pyridin-2-yl]-1,8-naphthyridin-4-amine] | ≤ 1000 nM
CC(C)(C)c1ccc(Nc2cc(N3CCCCC3)nc3cc(-c4ncccc4C(F)(F)F)ccc23)cc1 [Compound 26, N-(4-tert-butylphenyl)-2-piperidin-1-yl-7-[3-(trifluoromethyl)pyridin-2-yl]quinolin-4-amine] | ≤ 1000 nM
